Measured values taken from PMC5142369 (Hypertension (Dallas, Tex. : 1979), 2016).

Molecular target: T1, aldosterone synthase (CYP11B2) (Homo sapiens, UniProt P19099)
T1 sequence (P19099 25-503): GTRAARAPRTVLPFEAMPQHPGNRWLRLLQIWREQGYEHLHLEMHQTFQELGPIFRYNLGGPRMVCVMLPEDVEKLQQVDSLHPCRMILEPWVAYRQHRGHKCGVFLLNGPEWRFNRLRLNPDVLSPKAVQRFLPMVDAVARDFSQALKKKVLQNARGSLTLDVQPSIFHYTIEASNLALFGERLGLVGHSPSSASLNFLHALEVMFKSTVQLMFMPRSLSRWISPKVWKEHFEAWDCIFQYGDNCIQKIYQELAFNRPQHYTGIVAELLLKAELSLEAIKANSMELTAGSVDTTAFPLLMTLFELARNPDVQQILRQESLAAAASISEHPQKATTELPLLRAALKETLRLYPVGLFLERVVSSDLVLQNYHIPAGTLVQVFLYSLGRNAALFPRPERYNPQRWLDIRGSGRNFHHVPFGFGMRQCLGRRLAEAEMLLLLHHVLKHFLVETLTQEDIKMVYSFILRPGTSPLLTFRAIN
Assay: aldosterone production by cells expressing the recombinant enzyme
Assay type: cell-based

- Ki: 13 nM
SMILES: CCC(=O)N[C@@H]1CCCc2c(-c3ccc4c(c3)CCC(=O)N4C)cncc21 [RO6836191]
